Data on one compound can be found in patent US20100081690A1, “OXAZOLE DERIVATIVES AS POSITIVE ALLOSTERIC MODULATORS OF METABOTROPIC GLUTAMATE RECEPTORS” (ADDEX PHARMA SA, priority 2006, published 2010).

In general, EC50 refers to the concentration needed to bring the measured effect to its halfway point. For orientation: melting point means the temperature, or range, at which the solid turns liquid.

One data set addresses T1, mGluR5 (Rattus norvegicus, UniProt P31424).
T1 construct: positive allosteric modulators of mGluR5 receptors in native preparations; endogenous in cells; host or cells: primary cortical astrocytes from Sprague-Dawley rat embryos (E16-19)
The data set can be described thus: mGluR5 assay on rat cultured cortical astrocytes (Ca2+ mobilization, FLIPR). The data set is classed as cell-based. To be noted: in the presence of 300 nM glutamate. The source says:
Under exposure to growth factors (basic fibroblast growth factor, epidermal growth factor), rat cultured astrocytes express group I-Gq coupled mGluR transcripts, namely mGluR5, but none of the splice variants of mGluR1, and as a consequence, a functional expression of mGluR5 receptors (Miller et al. (1995) J. Neurosci. 15:6103-9): The stimulation of mGluR5 receptors with selective agonist CHPG and the full blockade of the glutamate-induced phosphoinositide (PI) hydrolysis and subsequent intracellular calcium mobilization with specific antagonist as MPEP confirm the unique expression of mGluR5 receptors in this preparation. […]
After one day of incubation, cells were washed with assay buffer containing: 142 mM NaCl, 6 mM KCl, 1 mM Mg2SO4, 1 mM CaCl2, 20 mM HEPES, 1 g/L glucose, 0.125 mM sulfinpyrazone, pH 7.4. […] The plates were then transferred to a Fluorometric Imaging Plate Reader (FLIPR, Molecular Devices, Sunnyvale, Calif.) for the assessment of intracellular calcium flux. After monitoring the baseline fluorescence for 10 s, a solution containing […] of representative compound of the present invention diluted in Assay Buffer (15 μl of 4× dilutions) was added to the cell plate in the absence or in the presence of 300 nM of glutamate. […] In each experiment, fluorescence was then monitored as a function of time for 3 minutes and the data analyzed using Microsoft Excel and GraphPad Prism. […]
For orientation: Calcium assays in cells follow changes in intracellular calcium, usually with a dye or a luminescent sensor.

T1 sequence (P31424 21-1203): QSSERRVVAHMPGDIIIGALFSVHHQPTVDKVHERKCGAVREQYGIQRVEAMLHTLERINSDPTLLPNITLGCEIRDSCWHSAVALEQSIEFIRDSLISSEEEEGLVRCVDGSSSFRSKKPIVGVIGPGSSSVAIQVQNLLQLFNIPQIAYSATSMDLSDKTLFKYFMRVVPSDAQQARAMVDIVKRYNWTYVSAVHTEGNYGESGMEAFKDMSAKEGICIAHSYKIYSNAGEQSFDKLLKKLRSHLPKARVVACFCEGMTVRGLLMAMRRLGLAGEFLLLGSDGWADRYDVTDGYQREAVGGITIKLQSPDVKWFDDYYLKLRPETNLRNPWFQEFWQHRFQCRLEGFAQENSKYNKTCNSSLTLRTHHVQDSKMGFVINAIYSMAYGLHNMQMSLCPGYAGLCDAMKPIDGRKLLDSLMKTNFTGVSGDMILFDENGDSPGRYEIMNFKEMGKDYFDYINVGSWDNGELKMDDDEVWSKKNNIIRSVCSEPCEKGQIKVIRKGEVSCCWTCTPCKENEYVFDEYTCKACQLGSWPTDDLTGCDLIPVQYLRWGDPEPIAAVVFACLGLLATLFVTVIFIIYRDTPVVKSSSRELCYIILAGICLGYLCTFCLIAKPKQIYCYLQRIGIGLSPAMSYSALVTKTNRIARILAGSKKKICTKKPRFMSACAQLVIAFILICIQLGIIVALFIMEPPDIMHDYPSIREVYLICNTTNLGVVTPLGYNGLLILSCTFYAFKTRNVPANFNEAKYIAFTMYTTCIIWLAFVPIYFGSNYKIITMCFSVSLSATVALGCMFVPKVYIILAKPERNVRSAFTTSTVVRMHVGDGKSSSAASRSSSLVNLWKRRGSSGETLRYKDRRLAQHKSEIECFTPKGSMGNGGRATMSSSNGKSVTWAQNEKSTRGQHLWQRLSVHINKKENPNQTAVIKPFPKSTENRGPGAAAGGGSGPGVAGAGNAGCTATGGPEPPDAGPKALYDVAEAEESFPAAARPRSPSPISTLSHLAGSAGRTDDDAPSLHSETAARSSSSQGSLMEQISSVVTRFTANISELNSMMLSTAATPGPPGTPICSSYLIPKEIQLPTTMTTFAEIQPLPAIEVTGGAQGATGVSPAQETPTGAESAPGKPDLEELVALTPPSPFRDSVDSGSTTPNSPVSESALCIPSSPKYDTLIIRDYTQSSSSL

Regarding `O=C(c1ccc(F)cc1)N1CCC[C@H](c2nc(-c3cc(F)c[nH]3)co2)C1` [Example 1, (4-Fluoro-phenyl)-{(S)-3-[4-(4-fluoro-1H-pyrrol-2-yl)-oxazol-2-yl]-piperidin-1-yl}-methanone], the melting point amounted to 136 °C. For the same compound, the EC50 on mGluR5 was < 1000 nM.
